This note sets out measurements from ChEMBL document CHEMBL2203141, “Heterologously expressed β-hydroxyl fatty acids from a metagenomic library of a marine sponge” (2012).

One test concerns Penicillium roqueforti. The experiment in a line: Antifungal activity against Penicillium roqueforti by serial two-fold dilution microtiter plate method. The test is classed as functional.
A further test has as its system Aspergillus fumigatus. The experiment in a line: Antifungal activity against Aspergillus fumigatus by serial two-fold dilution microtiter plate method. In kind it is functional.
Another test concerns Kluyveromyces marxianus. The experiment in a line: Antifungal activity against Kluyveromyces marxianus by serial two-fold dilution microtiter plate method. The test is classed as functional.
The next test concerns Wickerhamomyces anomalus. Put plainly: Antifungal activity against Pichia anomala by serial two-fold dilution microtiter plate method. In kind it is functional. To be noted: Hansenula anomala.
Test [1] is described as follows: Antifungal activity against Penicillium commune by serial two-fold dilution microtiter plate method. The test is classed as functional.
A further test has as its system Aspergillus nidulans. The experiment in a line: Antifungal activity against Aspergillus nidulans by serial two-fold dilution microtiter plate method. The test is classed as functional.
A short description of test [2]: Antifungal activity against […] mucilaginosa by serial two-fold dilution microtiter plate method. The test is classed as functional.
For the next test, the system named is Escherichia coli. Put plainly: Antibacterial activity against Escherichia coli by broth dilution method. The test is classed as functional, organism-based.
For the next test, the system named is Candida albicans. Put plainly: Antifungal activity against Candida albicans by broth dilution. In kind it is functional.
A further test deals with Bacillus cereus. Put plainly: Antibacterial activity against Bacillus cereus by broth dilution method. The test is classed as functional.
The next test concerns Staphylococcus aureus. Put plainly: Antibacterial activity against methicillin-resistant Staphylococcus aureus by broth dilution method. The test is classed as functional, organism-based.

In brackets after ≈: the same amount, converted by molar mass. Activity calls are given as the source filed them. No cut-off for these calls is given here.

For `CCCCCCCCC[C@@H](O)CC(=O)O`, the MIC (in the test on Penicillium roqueforti; against Aspergillus fumigatus; in the test with Kluyveromyces marxianus; against Wickerhamomyces anomalus; in [1]; against Aspergillus nidulans) was 10 µg/mL (≈ 46.2 µM) throughout. Moreover, in test [2], 10 µg/mL (≈ 46.2 µM) was the least that counted as inhibitory (MIC).

Consider `CCCCCCCCCCC[C@@H](O)CC(=O)O`, for which the MIC (against Penicillium roqueforti; in the test with Aspergillus fumigatus; in the test on Kluyveromyces marxianus; against Wickerhamomyces anomalus; in test [1]; in the test on Aspergillus nidulans) was 10 µg/mL (≈ 40.9 µM) in each case. Also, in test [2], the MIC came to 10 µg/mL (≈ 40.9 µM).

For `CCCCCCCCCCCCC[C@@H](O)CC(=O)O`, the outcome in the test with Escherichia coli and with Staphylococcus aureus was inactive. Further, the MIC turned out to be 12.5 µg/mL (≈ 45.9 µM) in the test with Candida albicans and 6.25 µg/mL (≈ 22.9 µM) in the test with Bacillus cereus.
